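Compound exposure: 48 hours, 5 concentrations, 96-well plates. Here, GI50 denotes the concentration required for 50% inhibition of growth.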 Activity calls are given as the source filed them. Cut-off read from the data, not from the text of the source: active = GI50 up to about 1.1 µM and inactive = higher.
How the values were obtained:
Test in all cases: growth of human tumour cells (NCI), 48 h
LOX IMVI = system: LOX IMVI
RXF 393 = system: RXF 393
A549 = system: A549
CAKI-1 = system: CAKI-1
SF-295 = system: SF-295
HL-60 = system: HL-60
SNB-75 = system: SNB-75
K562 = system: K562
SN12C = system: SN12C
SF-268 = system: SF-268
A498 = system: A498
HT-29 = system: HT-29
NCI-H522 = system: NCI-H522
HOP-92 = system: HOP-92
IGROV-1 = system: IGROV-1
EKVX = system: EKVX

Measured: GI50

Cn1cnc(CCc2ccccc2)n1
inactive: LOX IMVI > 100 µM | RXF 393 > 100 µM | A549 > 100 µM | CAKI-1 > 100 µM | SF-295 > 100 µM | HL-60 > 100 µM | SNB-75 > 100 µM | K562 > 100 µM | SN12C > 100 µM | SF-268 > 100 µM | A498 > 100 µM | HT-29 > 100 µM | NCI-H522 > 100 µM | HOP-92 > 100 µM | IGROV-1 > 100 µM

COC(=O)[C@@H]1CCCCC[C@H]2C(CO)=C(C)C(=O)C12 (stereo partly specified)
inactive: RXF 393 > 100 µM | A549 > 100 µM | CAKI-1 > 100 µM | EKVX > 100 µM | SF-295 > 100 µM | HL-60 > 100 µM | SNB-75 > 100 µM | K562 > 100 µM | SN12C > 100 µM | SF-268 > 100 µM | A498 > 100 µM | HT-29 > 100 µM | NCI-H522 > 100 µM | HOP-92 > 100 µM | IGROV-1 > 100 µM

COc1nc(NC2OC(COC(C)=O)C(OC(C)=O)C(OC(C)=O)C2OC(C)=O)c(/N=C/C=N/c2c(NC3OC(COC(C)=O)C(OC(C)=O)C(OC(C)=O)C3OC(C)=O)nc(OC)[nH]c2=O)c(=O)[nH]1 (stereo unspecified)
inactive: LOX IMVI > 100 µM | A549 > 100 µM | CAKI-1 > 100 µM | EKVX > 100 µM | SF-295 > 100 µM | HL-60 > 100 µM | SNB-75 > 100 µM | K562 > 100 µM | SN12C > 100 µM | SF-268 > 100 µM | A498 > 100 µM | HT-29 > 100 µM | NCI-H522 > 100 µM | HOP-92 > 100 µM | IGROV-1 > 100 µM

CC(=O)NNc1nc(C)c(C(=O)NNC(=O)C(=O)Nc2c(Cl)cc([N+](=O)[O-])cc2Cl)s1
inactive: LOX IMVI 25.6 µM | A549 31.6 µM | EKVX 44.2 µM | SF-295 34.8 µM | HL-60 28.2 µM | K562 36 µM | SN12C 42.7 µM | SF-268 29.7 µM | A498 21.6 µM | HT-29 37.8 µM | NCI-H522 > 10 µM | HOP-92 19.5 µM | IGROV-1 49.3 µM

Cc1cc(N(CCC#N)CCC#N)ccc1/C=C\C(=O)Nc1ccccc1
inactive: LOX IMVI 1.26 µM | A549 > 100 µM | CAKI-1 > 100 µM | EKVX > 100 µM | SF-295 86.1 µM | HL-60 26 µM | SNB-75 > 100 µM | K562 1.37 µM | SN12C > 100 µM | SF-268 97.1 µM | A498 > 100 µM | HT-29 5.92 µM | NCI-H522 > 100 µM | HOP-92 > 100 µM | IGROV-1 > 100 µM

CCN1c2ccccc2C(C(SC)S(=O)(=O)c2ccc(C)cc2)c2c1[nH]c(=O)n(C)c2=O (stereo unspecified)
inactive: LOX IMVI > 100 µM | A549 > 100 µM | CAKI-1 > 100 µM | EKVX > 100 µM | SF-295 > 100 µM | HL-60 89.9 µM | SNB-75 23.7 µM | K562 > 100 µM | SN12C > 100 µM | SF-268 > 100 µM | A498 > 100 µM | HT-29 > 100 µM | NCI-H522 > 100 µM | HOP-92 > 100 µM | IGROV-1 > 100 µM

ClCCC[Si]12OCCN(CCO1)CCO2
inactive: RXF 393 > 100 µM | A549 > 100 µM | CAKI-1 > 100 µM | EKVX > 100 µM | SF-295 > 100 µM | HL-60 > 100 µM | SNB-75 > 100 µM | K562 > 100 µM | SN12C > 100 µM | SF-268 > 100 µM | A498 > 100 µM | HT-29 > 100 µM | NCI-H522 > 100 µM | HOP-92 > 100 µM | IGROV-1 > 100 µM

Cc1cc(C)c(C(=O)O)c(SSc2cc(C)cc(C)c2C(=O)O)c1
inactive: LOX IMVI > 100 µM | RXF 393 > 100 µM | A549 > 100 µM | CAKI-1 > 100 µM | EKVX > 100 µM | SF-295 > 100 µM | HL-60 > 100 µM | K562 > 100 µM | SN12C > 100 µM | SF-268 > 100 µM | A498 > 100 µM | HT-29 > 100 µM | NCI-H522 > 100 µM | HOP-92 > 100 µM

C=C1C(OC(=O)/C=C/c2ccccc2)CC(OC(C)=O)C2(C)C1CC1CC(OC(C)=O)C(C)=C(C(OC(C)=O)C2OC(C)=O)C1(C)C (stereo unspecified)
inactive: LOX IMVI > 100 µM | A549 5.45 µM | CAKI-1 > 100 µM | SF-295 > 100 µM | HL-60 2.07 µM | SNB-75 > 100 µM | K562 5.25 µM | SN12C > 100 µM | SF-268 > 100 µM | A498 31.6 µM | HT-29 > 100 µM | NCI-H522 > 100 µM | HOP-92 > 100 µM | IGROV-1 > 100 µM

COC(=O)C1CC(=O)CCC1c1ccccc1 (stereo unspecified)
inactive: LOX IMVI > 100 µM | A549 > 100 µM | CAKI-1 > 100 µM | EKVX > 100 µM | SF-295 > 100 µM | HL-60 > 100 µM | SNB-75 > 100 µM | K562 > 100 µM | SN12C > 100 µM | SF-268 > 100 µM | A498 > 100 µM | HT-29 > 100 µM | NCI-H522 > 100 µM | HOP-92 > 100 µM | IGROV-1 > 100 µM

CCOC(=O)C1=C(C)Nc2ccccc2S1
inactive: LOX IMVI 94.8 µM | RXF 393 51.9 µM | A549 > 100 µM | CAKI-1 > 100 µM | EKVX 14.3 µM | SF-295 > 100 µM | SNB-75 > 100 µM | K562 > 100 µM | SN12C > 100 µM | SF-268 > 100 µM | A498 > 100 µM | HT-29 > 100 µM | NCI-H522 > 100 µM | HOP-92 44 µM | IGROV-1 > 100 µM

Cc1c(-c2cc(-c3ccccc3)n[nH]c2=O)c2ccccc2n1C
inactive: RXF 393 > 61.7 µM | A549 > 100 µM | CAKI-1 > 100 µM | EKVX > 100 µM | SF-295 > 100 µM | HL-60 > 100 µM | SNB-75 > 100 µM | K562 > 100 µM | SN12C > 100 µM | SF-268 > 100 µM | A498 > 100 µM | HT-29 > 100 µM | NCI-H522 > 100 µM | HOP-92 > 100 µM | IGROV-1 > 100 µM

COc1ccc(/C=C2\N=C(c3ccccc3)N(Nc3nnc(NN4C(=O)/C(=C/c5ccc(OC)cc5)N=C4c4ccccc4)c4ccccc34)C2=O)cc1
inactive: LOX IMVI 20.7 µM | RXF 393 > 100 µM | A549 > 100 µM | EKVX > 100 µM | SF-295 > 100 µM | HL-60 30 µM | SNB-75 68.9 µM | K562 38.1 µM | SN12C 68.5 µM | SF-268 81.8 µM | A498 > 100 µM | HT-29 57.5 µM | NCI-H522 35.1 µM | HOP-92 > 100 µM | IGROV-1 > 100 µM
